{"source": "patent US9308198B2", "about": "“Treatment, prevention, and reversal of alcohol-induced brain disease” (priority 2006, dated 2016)", "key": {"IGF-II receptor": {"system": "IGF-II receptor", "conditions": "chronic ethanol feeding", "from_the_text": "(§1) Male (˜200 g) Long Evans rats (Charles River Laboratories, Cambridge, Mass.) were fed isocaloric liquid diets (BioServ, Frenchtown, N.J.) in which ethanol comprised 0% or 37% of the caloric content (9.25% v/v) for 6 weeks (Yeon et al., Hepatology 38:703 (2003)). A chow fed control group was also studied. Rats were monitored daily to ensure equivalent food consumption and maintenance of body weight. Upon sacrifice, the brains were harvested and either immersion fixed in Histochoice fixative (Amresco Corp., Solon, Ohio) for paraffin embedding, or sliced fresh to micro-dissect temporal cortex, hypothalamus, and cerebellum. The fresh tissue blocks were snap frozen in a dry ice-methanol bath and stored at −80° C. for mRNA and protein studies.\n(§2) Fresh frozen tissue (˜100 mg) was homogenized in 5 volumes of NP-40 lysis buffer (50 mM Tris-HCl, pH 7.5, 1% NP-40, 150 mM NaCl, 1 mM EDTA, 2 mM EGTA) containing protease inhibitors (1 mM PMSF, 0.1 mM TPCK, 1 μg/ml aprotinin, 1 μg/ml pepstatin A, 0.5 μg/ml leupeptin, 1 mM NaF, 1 mM Na4P2O7). Protein concentrations were determined using the bicinchoninic acid (BCA) assay (Pierce, Rockford, Ill.). Exploratory studies determined the amounts of protein and concentrations of radiolabeled ligand required to achieve 20% specific binding. Insulin receptor binding assays were performed using 100 μg protein. IGF-I binding assays required 25 μg protein per sample, and IGF-II receptor binding assays were optimized using 10 μg protein. Competitive equilibrium binding assays were used to assess growth factor binding in relation to ethanol exposure. For total binding, duplicate individual protein samples were incubated in 100 μl reactions containing binding buffer (100 mM HEPES, pH 8.0, 118 mM NaCl, 1.2 mM MgSO4, 8.8 mM dextrose, 5 mM KCl, 1% bovine serum albumin) and 100 nCi/ml of [^125I] (2000 Ci/mmol; […]) insulin, IGF-I, or IGF-II. To measure non-specific binding, replicate samples were identically prepared but with the addition of 0.1 μM unlabeled (cold) ligand.\n(§3) All reactions were performed in 1.5 ml Eppendorff tubes, and the incubations were performed at 4° C. for 16 hours with gentle platform agitation. Bound radiolabeled tracer was then precipitated by adding 500 μl of 0.15% bovine gamma globulin (prepared in 100 mM Tris-HCl, pH 8.0) followed by 400 μl 37.5% polyethylene glycol 8000 (PEG-8000; prepared in 100 mM Tris-HCl, pH 8.0) to each tube. […] The samples were counted for 1 minute in an LKB CompuGamma CS Gamma counter. Specific binding was calculated by subtracting fmol of non-specific binding, i.e., amount bound in the presence of cold ligand, from the total fmol bound (absence of unlabeled competitive ligand). The results were analyzed and plotted using the GraphPad Prism 4 software (GraphPad Software, Inc., San Diego, Calif.). […]"}, "insulin receptor": {"system": "insulin receptor", "conditions": "chronic ethanol feeding; temporal lobe, hypothalamus, and cerebellum", "from_the_text": "as §1, §2, §3"}, "IGF-I receptor": {"system": "IGF-I receptor", "conditions": "chronic ethanol feeding; temporal lobe, hypothalamus, and cerebellum", "from_the_text": "as §1, §2, §3"}}, "note": "Like-named read-outs stand apart in the source and are kept apart here."}
{"smiles": "CCO", "note": "[ethanol]", "values": [{"measurement": "IGF-II receptor binding", "setting": "IGF-II receptor; cerebella, relative to control rats", "result": "significantly lower"}, {"measurement": "IGF-II receptor binding", "setting": "IGF-II receptor; temporal lobe and hypothalamus", "result": "relatively preserved"}, {"measurement": "insulin receptor binding", "setting": "insulin receptor", "result": "significantly reduced"}, {"measurement": "IGF-I receptor binding", "setting": "IGF-I receptor", "result": "significantly reduced"}]}
